Assay: Dentin loss under extreme erosion conditions, composition versus its three ingredients separately (Example 8)
Design: species or system cow
Conditions: 10 cycles: 5 min pre-treatment, 1% citric acid pH 2.3 for 3 min; vs distilled water
Method: The protective capacity of a mouthwash formulated with olive oil, trimethylglycine and xylitol in dentin subjected to extreme erosion conditions was analysed, compared to that of aqueous solutions of the three ingredients separately in the same concentrations used in the mouthwash tested. For the evaluation of effects a control was included consisting of distilled water.
Incisive teeth extracted from a cow's jaw were used, which were immersed in a 0.5% thymol solution at room temperature. The teeth were sectioned at the cementum-enamel junction by means of a water-cooled diamond scalpel (Exakt, Norderstedt, Germany), and the crowns and roots were embedded in acrylic resin cylinders (Paladur, Heraeus Kulzer, Wehrheim, Germany). Radicular cementum was completely eliminated. […]
Dentin loss was quantified performing profile or profilometric measurements (Mahr Perthometer, Göttingen, Germany). […] After the experiment the adhesive tapes were removed and the samples were analysed again. The average depth of the eroded surfaces was thus calculated with respect to basic surface profiles by means of specific software (Mahr Perthometer Concept 7.0, Mahr, Göttingen, Germany).
Dentin loss was calculated (mean±standard deviation) for each group and statistically analysed by Student's t test followed by Bonferroni's t test for multiple comparisons (Statistica 6.0, Statsoft, Tulsa, USA).

| Structure (SMILES) | protective effect on dentin against erosion |
| --- | --- |
| OC[C@@H](O)[C@H](O)[C@@H](O)CO [1% xylitol solution, xylitol] | did not demonstrate any protective effect |
| C[N+](C)(C)CC(=O)[O-] [2% trimethylglycine solution, trimethylglycine] | did not demonstrate any protective effect |

Reference: US20080241080A1, “COMPOSITION FOR TREATING XEROSTOMIA OR DRY MOUTH” (BIOCOSMETICS, S.L., priority 2007, published 2008)
